Measurements: patent US9572788B2, “Cell permeable inhibitors of anaphase promoting complex” (President and Fellows of Harvard College, priority 2014, dated 2017)

System: hTERT-RPE1 H2B-GFP cells
Assay: Live imaging of mitotic duration in hTERT-RPE1 H2B-GFP cells
Format: cell-based, human
Procedure: FIG. 18A is a graph and table showing that proTAME induces a mitotic delay in hTERT-RPE1 H2B-GFP cells. Asynchronous hTERT-RPE1 H2B-GFP cells were treated with 0.06% DMSO, 6 μM proTAME or 12 μM proAAME. Cells were imaged at 12 min interval. Cumulative frequency curves of mitotic duration and cell fate distribution are shown.
The imaging plate was mounted onto a motorized stage (Prior ProScan II) on a Nikon TE2000E PFS inverted microscope fitted with an incubation chamber maintained at 37° C. and supplied with 5% CO2. A 20× Plan Apo 0.75 NA or 40× Plan Fluor 0.75 NA objective lens was used as indicated and images were collected with 2×2 binning. DIC or GFP fluorescent images were taken every 12 min (unless otherwise specified) for 36 h with a Hamamatsu ORCA cooled CCD camera and Nikon Elements Software. TIFF files of each image were exported from Elements and used to build stacks and Quicktime movies with Metamorph imaging software (Molecular Devices). For manual analysis, mitotic duration is counted as the time between the first frame of chromosome condensation and the frame of chromosome segregation (anaphase) or decondensation (mitotic exit in the presence of nocodazole) or cell death (chromosomes shrinking to a small bright dot).

[1] = Fig S4A, asynchronous hTERT-RPE1 cells, proAAME 12 μM, proTAME 6 μM

COC(=O)[C@H](CCCN/C(=N\C(=O)OCOC(=O)Cc1ccccc1)NC(=O)OCOC(=O)Cc1ccccc1)NS(=O)(=O)c1ccc(C)cc1 [proTAME]
Average mitotic duration [1]: 819.0 min
Median mitotic duration [1]: 522 min
Median mitotic duration (asynchronous hTERT-RPE1, 6 μM): over 8 h
